Source: patent US9375000B2, “Pesticidal arylpyrrolidines” (Bayer Intellectual Property GmbH, priority 2011, dated 2016)

Experiments:
[1] = test system: Two-Spotted Spider Mite (Tetranychus urticae); assay: Two-spotted spider mite (Tetranychus urticae) spray test on kidney bean; assay type: in vivo; settings: after 7 days
Procedure, shortened: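 Kidney bean plants at the two-leaf stage carried 50-100 adult mites and were sprayed one day later with compound in DMF/polyoxyethylene alkyl phenyl ether diluted in water. Ammonium salt and penetration enhancer at 1000 ppm were added if needed. Acaricidal activity (% mites killed) was scored after 7 days in a greenhouse.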

[2] = test system: Cucurbit Leaf Beetle (Aulacophora femoralis); assay: Cucurbit leaf beetle (Aulacophora femoralis) cucumber leaf dip test; assay type: in vivo; settings: after 7 days
Procedure, shortened: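 Cucumber leaves dipped in compound formulated with DMF and polyoxyethylene alkyl phenyl ether, diluted in water, with ammonium salt or ammonium salt plus penetration enhancer at 1000 ppm added if necessary; dried leaves placed on sterilized soil with five second-instar larvae. Kept at 25° C; larval mortality counted after 7 days.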

[3] = test system: Larvae of Spodoptera litura; assay: Larvae of Spodoptera litura, method using artificial feeds; assay type: in vivo; settings: artificial feed, after 7 days
Procedure, shortened: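 Compound formulated in dimethylformamide with polyoxyethylene alkyl phenyl ether emulsifier, water-diluted and poured onto artificial diet. Five 3rd-instar Spodoptera litura larvae per cup, held at 25° C and 50-60% humidity. Mortality after 7 days expressed as pesticidal ratio.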

Thrips palmi = Thrips palmi spray test (THRIPL); assay type: in vivo; settings: active compound concentration 20 ppm; after 6 days
Procedure, shortened: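 Cucumber seedlings sprayed with compound formulated in DMF/polyoxyethylene alkyl phenyl ether and diluted in water, ammonium salt ± penetration enhancer at 1000 ppm added if needed. About 100 T. palmi eggs attached, plants held caged at 100% humidity, 23 °C. Percent activity scored from feeding damage after 6 days, 100 = no damage, 0 = as untreated.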

[4] = test system: Nymphs of the tick Amblyomma hebraeum; assay: Amblyomma hebraeum test (AMBYHE), nymph immersion; assay type: in vivo; settings: application rate 100 ppm; immersion one minute; 42 days
Experimental: Solvent: Dimethyl sulfoxide
To produce a suitable preparation of active compound, 10 mg of active compound are dissolved in 0.5 ml solvent, and the concentrate is diluted with water to the desired concentration. Nymphs of the tick Amblyomma hebraeum are placed in perforated plastic beakers and immersed in aqueous compound solution for one minute. Ticks are transferred to a filter paper in a petridish and incubated in a climate chamber for 42 days. After the specified period of time, mortality in % is determined. 100% means that all the ticks have been killed; 0% means that none of the ticks have been killed.

[5] = test system: Tobacco Cutworm (Spodoptera litura) Larvae; assay: Tobacco cutworm (Spodoptera litura) larvae, sweet potato leaf dip test; assay type: in vivo; settings: dead larvae after 7 days
Procedure, shortened: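 Sweet potato leaves were dipped in DMF/emulsifier test solution at the set concentration and air-dried. Ten third-instar S. litura larvae were placed per dish at 25 °C, with fresh leaves added on days 2 and 4. Mortality was counted on day 7, given as % insecticidal activity averaged over two dishes.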

[6] = test system: green peach aphids (Myzus persicae); assay: Myzus persicae spray test (MYZUPE); assay type: in vivo; settings: active compound concentration 20 ppm; after 6 days
Experimental: Unless not mentioned otherwise, the test solutions were prepared as follows:
Solvent: 3 parts by weight Dimethylformamide
Emulsifier: 1 part by weight Polyoxyethylene alkyl phenyl ether
In order to make an appropriate formulation of an active compound, 1 part by weight of the active compound is mixed with the above mentioned amount of solvent and emulsifier and the mixture is diluted with water to a prescribed concentration. Ammonium salt or ammonium salt and penetration enhancer in a dosage of 1000 ppm are added to the desired concentration if necessary.
1 day before treatment, green peach aphids (Myzus persicae) are inoculated onto the testing plants, about 50 heads per leaf, 100 for 1 pot. A paper label is placed on each pot. Solutions are sprayed directly onto both insects and plants. After drying, the pots are placed in the greenhouse at 20° C.-25° C. After 6 days mortality in % is determined. An insecticidal activity of 100% means that all aphids were killed, whereas an insecticidal activity of 0% means that no aphid was killed.

Ctenocephalides felis = assay: Test against Ctenocephalides felis (CTECFE), blood feeding; assay type: in vivo; settings: application rate 100 ppm in cattle blood; after 2 days
Experimental: Solvent: dimethyl sulfoxide
To produce a suitable preparation of active compound, 10 mg of active compound are dissolved in 0.5 ml solvent, and the concentrate is diluted with cattle blood to the desired concentration. Approximately 20 adult unfed (Ctenocepahlides felis) are placed in flea chambers. The blood chamber, sealed with parafilm on the bottom, are filled with cattle blood supplied with compound solution and placed on top of the flea chamber, so that the fleas are able to suck the blood. The blood chamber is heated to 37° C. whereas the flea chamber is kept at room temperature.
After 2 days mortality in % is determined. 100% means that all the fleas have been killed; 0% means that none of the fleas have been killed.

[7] = log P by HPLC on reversed phase columns (EEC directive 79/831 Annex V.A8); assay type: physicochemical
Experimental: Calibration was done with not branched alkan2-ones (with 3 to 16 carbon atoms) with known log P-values (measurement of log P values using retention times with linear interpolation between successive alkanones). lambda-maX-values were determined using UV-spectra from 200 nm to 400 nm and the peak values of the chromatographic signals.

[8] = active compound concentration 4 ppm
[9] = active compound concentration 20 ppm

Structure (SMILES)	acaricidal activity [1, 8] [%]	insecticidal activity [2, 8] [%]	insecticidal activity [2, 9] [%]	insecticidal activity (pesticidal ratio) [3, 8] [%]	insecticidal activity (pesticidal ratio) [3, 9] [%]	insecticidal activity (by feeding damage degree) (Thrips palmi) [%]	activity (mortality) [4] [%]	insecticidal activity [5, 8] [%]	insecticidal activity (mortality) [6] [%]	activity (mortality) (Ctenocephalides felis) [%]	log P [7]	insecticidal activity [5, 9] [%]	acaricidal activity [1, 9] [%]	logP [7]
O=C(NCc1ccc(N2CCC(c3ccc(F)c(C(F)(F)F)c3)(C(F)(F)F)C2O)nc1C(F)(F)F)C1CC1 (mixture of isomers) [A3-236]	100	100	100	100	100	98	100	–	–	–	–	–	–	–
O=C(NCc1cnc(N2CCC(c3cc(Cl)c(F)c(Cl)c3F)(C(F)(F)F)C2O)nc1C(F)(F)F)C1CC1 (stereo not shown) [A4-115]	100	–	100	–	–	98	100	100	100	90	–	–	–	–
O=C(NCc1cnc(N2CCC(c3cc(Cl)c(F)c(Cl)c3)(C(F)(F)F)C2O)nc1C(F)(F)F)C1CC1 (stereo not shown) [A4-104]	100	–	100	–	–	98	100	100	–	–	–	–	–	–
O=C(NCc1ccc(N2CCC(c3cc(Cl)cc(Cl)c3)(C(F)(F)F)C2O)cc1F)C1CC1 (mixture of isomers) [A1-99]	90	–	100	–	–	–	–	100	–	–	3.47	–	–	–
CCC(=O)NCc1ccc(N2CCC(c3cc(F)cc(C(F)(F)F)c3)(C(F)(F)F)C2O)nc1C(F)(F)F (mixture of isomers) [A3-244]	90	100	100	100	100	–	100	–	–	–	–	–	–	–
COCCC(=O)NCc1ccc(N2CCC(c3cc(C(F)(F)F)cc(C(F)(F)F)c3)(C(F)(F)F)C2O)nc1Br (mixture of isomers) [A3-162]	–	–	–	–	–	–	–	–	–	–	–	100	90	3.71
O=C(NCc1cnc(N2CCC(c3cc(Cl)c(F)c(Cl)c3F)(C(F)(F)F)C2O)cc1C(F)(F)F)C1CC1 (stereo not shown) [A5-82]	100	–	100	–	–	90	100	100	–	95	–	–	–	–
O=C(NCc1ccc(N2CCC(c3cc(F)cc(C(F)(F)F)c3)(C(F)(F)F)C2O)nc1C(F)(F)F)C1CC1 (mixture of isomers) [A3-247]	100	100	100	100	100	–	100	–	100	95	–	–	100	–
O=C(CC(F)(F)F)NCc1ccc(N2CCC(c3cc(Cl)cc(C(F)(F)F)c3)(C(F)(F)F)C2O)nc1C(F)(F)F (racemic) [A3-271]	100	100	100	100	100	98	100	–	–	–	–	–	100	–
